pIC50: −log10 of the molar value. Bridge positions count the residues as written; N and C are the ends. Peptide text beside a SMILES is read from it.
Experiments:
Experiment in all cases: biochemical
[1] = target: T1, serotonin transporter (SERT) (Rattus norvegicus, UniProt P31652)
T1 construct: brains were processed to yield synaptosomes as previously described; from tissue; host or cells: rat whole brain minus caudate and cerebellum, synaptosomes

[2] = target: T2, dopamine transporter (DAT) (Rattus norvegicus, UniProt P23977)
T2 construct: brains were processed to yield synaptosomes as previously described; from tissue; host or cells: rat caudate synaptosomes

[3] = target: T3, norepinephrine transporter (NET) (Rattus norvegicus, UniProt Q63380); type: biochemical
T3 construct: brains were processed to yield synaptosomes as previously described; from tissue; host or cells: rat whole brain minus caudate and cerebellum, synaptosomes
T3 sequence (Q63380 1-617): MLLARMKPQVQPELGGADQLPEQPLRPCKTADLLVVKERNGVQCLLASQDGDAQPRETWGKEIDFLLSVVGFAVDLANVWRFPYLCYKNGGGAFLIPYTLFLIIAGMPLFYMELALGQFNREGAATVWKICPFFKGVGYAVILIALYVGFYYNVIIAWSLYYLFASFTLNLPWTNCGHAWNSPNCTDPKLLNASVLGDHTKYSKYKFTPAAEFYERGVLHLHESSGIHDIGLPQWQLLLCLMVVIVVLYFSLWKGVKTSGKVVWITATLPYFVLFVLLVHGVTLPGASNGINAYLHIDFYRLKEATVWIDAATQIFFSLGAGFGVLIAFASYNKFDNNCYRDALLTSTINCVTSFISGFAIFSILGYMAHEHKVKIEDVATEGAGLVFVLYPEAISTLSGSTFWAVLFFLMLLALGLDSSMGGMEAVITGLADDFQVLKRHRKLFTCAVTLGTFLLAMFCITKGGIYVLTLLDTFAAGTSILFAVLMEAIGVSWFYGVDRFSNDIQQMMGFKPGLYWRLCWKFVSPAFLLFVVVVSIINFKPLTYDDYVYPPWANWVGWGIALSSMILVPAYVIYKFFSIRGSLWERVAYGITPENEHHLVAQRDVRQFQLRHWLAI

T2 sequence (P23977 whole entry): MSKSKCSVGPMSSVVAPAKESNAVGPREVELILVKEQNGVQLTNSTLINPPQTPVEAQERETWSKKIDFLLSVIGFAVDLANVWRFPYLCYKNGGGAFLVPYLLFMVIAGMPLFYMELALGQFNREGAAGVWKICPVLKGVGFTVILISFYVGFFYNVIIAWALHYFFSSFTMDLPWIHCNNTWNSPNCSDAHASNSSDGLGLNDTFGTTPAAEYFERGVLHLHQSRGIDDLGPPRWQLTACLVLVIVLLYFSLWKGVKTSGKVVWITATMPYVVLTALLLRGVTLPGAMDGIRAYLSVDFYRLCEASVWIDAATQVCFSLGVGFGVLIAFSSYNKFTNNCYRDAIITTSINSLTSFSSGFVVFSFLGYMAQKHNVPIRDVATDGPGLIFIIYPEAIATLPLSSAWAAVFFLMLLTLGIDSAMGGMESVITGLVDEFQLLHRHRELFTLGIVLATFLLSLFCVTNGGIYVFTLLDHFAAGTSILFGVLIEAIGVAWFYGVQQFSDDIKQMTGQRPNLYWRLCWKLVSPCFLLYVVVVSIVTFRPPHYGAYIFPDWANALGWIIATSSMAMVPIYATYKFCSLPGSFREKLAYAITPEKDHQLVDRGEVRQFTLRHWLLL
T1 sequence (P31652 whole entry): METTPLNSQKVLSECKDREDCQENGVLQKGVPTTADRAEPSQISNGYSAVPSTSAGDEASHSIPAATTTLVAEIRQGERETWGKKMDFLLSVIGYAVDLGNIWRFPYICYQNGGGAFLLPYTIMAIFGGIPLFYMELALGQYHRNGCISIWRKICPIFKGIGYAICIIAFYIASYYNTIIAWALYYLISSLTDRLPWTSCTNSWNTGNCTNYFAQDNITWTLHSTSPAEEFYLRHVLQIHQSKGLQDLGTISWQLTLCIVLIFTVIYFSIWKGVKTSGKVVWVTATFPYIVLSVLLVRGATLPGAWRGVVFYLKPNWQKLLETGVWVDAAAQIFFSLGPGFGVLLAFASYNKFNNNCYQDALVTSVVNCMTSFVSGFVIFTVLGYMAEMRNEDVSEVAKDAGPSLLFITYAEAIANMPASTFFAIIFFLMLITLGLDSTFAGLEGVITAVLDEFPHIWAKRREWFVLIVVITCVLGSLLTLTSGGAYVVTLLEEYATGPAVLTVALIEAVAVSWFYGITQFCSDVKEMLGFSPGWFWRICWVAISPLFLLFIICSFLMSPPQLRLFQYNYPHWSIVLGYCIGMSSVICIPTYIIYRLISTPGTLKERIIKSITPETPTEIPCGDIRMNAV

CSCC[C@H](NC(=O)[C@H](CCCNC(=N)N)NC(=O)[C@H](Cc1ccc(O)cc1)NC(=O)CNC(=O)[C@@H]1CSSC[C@H](NC(=O)[C@@H](NC(=O)[C@@H](N)CO)[C@@H](C)O)C(=O)N1)C(=O)N[C@H]1CSSC[C@@H](C(N)=O)NC(=O)[C@@H]2CCCN2C(=O)[C@H](C(C)C)NC1=O [PnID C] (H-STCCGYRMCVPC-NH2; disulfide 3-4, 9-12; N-terminus assumed)
pIC50 [1]: < 4.00 | pIC50 [2]: < 4.00 | pIC50 [3]: < 4.00 | activity at NET relative to ribbon isomer (in words) [3]: much less active in inhibiting the rat NET | biological activity (in words) [3]: did not display any measurable biological activity

Source: publication PMC9964023 (Marine Drugs, 2023)
